According to patent publication US11046745B2, “Peptide mimotopes of the CD3 T-cell co-receptor epsilon chain and uses thereof” (BioNTech SE, priority 2015, dated 2021):
Positions of bridges follow the written chain, without caps; N, C: chain ends. Residues, ends and D or L forms follow the SMILES beside them. No end group written: not given here. *: point of attachment. Biotin = O=C1N[C@H]2[C@H](CS[C@H]2CCCCC(=O)*)N1

What was measured:
[1] = target: TR66 antibody (CD3ε specific antibody, clone TR66); assay: Binding analysis using peptide ELISA, biotinylated peptides on streptavidin plates, TR66; settings: TR66; mean of at least two individual measurements; two-site saturation binding model; read-out: Apparent KD, ELISA
Description: FIG. 3. Binding analysis of phage derived variants using a peptide based ELISA. Biotinylated peptides were immobilized on streptavidin plates (Nunc) in a concentration of 0.75 μg/ml. After blocking 30 μg/ml TR66 or an unrelated antibody (control ab) were added and incubated for 1 h at 37° C. Binding was detected with an alkaline phosphatase conjugated goat anti-human IgG antibody (Sigma) and the chromogenic substrate PNPP (para-nitrophenyl phosphate). All reactions were performed as duplicates. SD values are presented as error bars.
For the detection of TR66 or OKT3 (Bio-X-Cell), the CD3 mimicking peptides were immobilized on streptavidin plates (Nunc) in a concentration of 0.75 μg/ml in PBS buffer for 1 hour at 37° C. Subsequently, the plate was washed three times with washing buffer (0.01% Tween-20 in PBS buffer) before it was blocked with 3% BSA in PBS overnight at 4° C. To detect TR66 or OKT3, the blocked plate was washed again three times with washing buffer followed by the addition of TR66 or OKT3 and incubation for 30 min at 37° C. After another washing step, it was incubated with an alkaline phosphatase conjugated Goat anti-human or anti-mouse IgG, Fe antibody (Jackson Immuno Research) for additional 30 min at 37° C. Finally, the plate was washed again before being incubated with 1.5 mg/ml of the substrate PNPP (para-nitrophenyl phosphate) in appropriate substrate buffer (1 M Diethanolamine, 0.05 mM MgCl2, 0.01% sodium azide, pH 9.8) for 30 min at RT in the dark. 3 M KOH was used to stop the enzymatic reaction. Absorbance was measured with a microplate reader (Infinite M200, Tecan). For dual wavelength analysis, 405 nm was chosen as measurement wavelength and 492 nm as reference wavelength. Absorbance values were calculated by subtraction of the measured values for the reference wavelength and for the measurement wavelength. Calculation of apparent KD values was done by fitting the data with Sigma Plot 10 using a two-site saturation binding model.

[2] = system: TR66 antibody (CD3ε specific antibody, clone TR66); assay: Binding analysis using biolayer interferometry (BLI), Octet Red, biotinylated peptides on streptavidin sensors; settings: for Yes/no binding, BLI: 500 nM TR66 antibody, one concentration; for Binding of TR66 in detailed BLI analysis (FIG. 5): TR66 1.5625 to 100 nM, dissociation constant could not be fitted
Description: FIG. 5. Comparative binding analysis of matured TR66 mimotopes aCD3-04-002 and aCD3-04-013 using biolayer interferometry (BLI) on an Octet Red system (fortéBIO). Biotinylated peptides were immobilized onto streptavidin (SA) sensors. After blocking with 1× blocking buffer and biocytin association and dissociaten rates of TR66 binding were recorded over a period of 2400 sec respectively. The antibody was used in a range of 1.5625 to 100 nM (1.5625, 3.125, 6.25, 12.5, 25, 50, 100 nM) for each analyzed peptide.
Binding analysis was performed using streptavidin (SA) sensors on an Octet Red system (fortéBIO). 5 μg/ml of biotinylated peptides were used for loading (200 μl per sensor). […] Remained biotin binding sites on coated streptavidin sensors were blocked using 100 μg/ml biocytin (Sigma-Aldrich) for 5 minutes. For binding mode analysis of different peptides 500 nM TR66 antibody was used in the association step. For detailed analysis the antibody was used in a range of 1.5625 to 100 nM (1.5625, 3.125, 6.25, 12.5, 25, 50, 100 nM) for each analyzed peptide. The following program was used: • Baseline: 1000 rpm for 180 sec. • Load: 1000 rpm for 900 sec. • Baseline: 1000 rpm for 180 sec. • Blocking: 1000 rpm for 300 sec. • Association: 1000 rpm for 1200-2400 sec. • Dissociation: 1000 rpm for 1200-2400 sec.
The peptides displaying the highest binding affinities from the peptide microarray experiments were synthesized by standard Fmoc-based solid-phase-synthesis protocols and purified (HPLC purity: >80%). The binding characteristics of each peptide were determined. In the first instance all peptides were analysed via biolayer interferometry (BLI) to get a first impression whether the respective variant has a significant binding property at all (yes/no binding, Table 2). At his point, only one TR66 concentration (500 nM) was tested. Except variants aCD3-04-010 and aCD3-04-012 all peptides show a measurable binding activity.

[3] = system: Muromonab-CD3 (Orthoclone OKT3), CD3-specific monoclonal antibody; assay: Peptide ELISA for cross-reactivity to OKT3; type: binding, murine
Description: FIG. 6. Comparative binding analysis of maturated TR66 mimotope aCD3-04-013 to approved antibody Muromanab-CD3 (Orthoclone OKT3®). Biotinylated peptides were immobilized on streptavidin plates (Nunc). After blocking different concentrations (0, 156, 312, 625, 1250, 5000 and 10000 ng/ml) of TR66, OKT3 or an unrelated antibody (control ab) were added and incubated for 1 h at 37° C. Binding was detected with an alkaline phosphatase conjugated goat anti-human IgG antibody (Sigma) and the chromogenic substrate PNPP (para-nitrophenyl phosphate). All reactions were performed as duplicates. SD values are presented as error bars.
For the detection of TR66 or OKT3 (Bio-X-Cell), the CD3 mimicking peptides were immobilized on streptavidin plates (Nunc) in a concentration of 0.75 μg/ml in PBS buffer for 1 hour at 37° C. Subsequently, the plate was washed three times with washing buffer (0.01% Tween-20 in PBS buffer) before it was blocked with 3% BSA in PBS overnight at 4° C. To detect TR66 or OKT3, the blocked plate was washed again three times with washing buffer followed by the addition of TR66 or OKT3 and incubation for 30 min at 37° C. […] Absorbance was measured with a microplate reader (Infinite M200, Tecan). […] Absorbance values were calculated by subtraction of the measured values for the reference wavelength and for the measurement wavelength. […]

Compound | Kd [1] [µM] | Yes/no binding, BLI [2] | Binding of TR66 in detailed BLI analysis (FIG. 5) [2] | Binding of OKT3 to mimotope, ELISA titration (FIG. 6) ([3]; OKT3 titration 0-10000 ng/ml) | Affinity of OKT3 binding compared to TR66 binding, ELISA ([3]; different detection antibodies for TR66 and OKT3)
C[C@H](N)C(=O)N[C@H]1CSSC[C@@H](C(=O)NCC(=O)NCC(=O)NCC(=O)N[C@@H](CO)C(=O)N[C@@H](CCCCNC(=O)CCCC[C@@H]2SC[C@@H]3NC(=O)N[C@@H]32)C(=O)O)NC(=O)[C@H](CCC(N)=O)NC(=O)[C@@H]2CCCN2C(=O)[C@H](CC(=O)O)NC(=O)[C@H](CC(=O)O)NC(=O)[C@@H]2CCCN2C(=O)[C@H](CCCNC(=N)N)NC(=O)[C@H]([C@@H](C)O)NC1=O [aCD3-04-002, ACTRPDDPQC-GGGS-K(Bio)] (H-ACTRPDDPQCGGGSK(Biotin)-OH; disulfide 2-10) | 0.078 | Yes | concentration-dependent binding |  | 
C[C@@H](O)[C@@H]1NC(=O)[C@@H](NC(=O)[C@@H](N)Cc2c[nH]c3ccccc23)CSSC[C@@H](C(=O)NCC(=O)NCC(=O)NCC(=O)N[C@@H](CO)C(=O)N[C@@H](CCCCNC(=O)CCCC[C@@H]2SC[C@@H]3NC(=O)N[C@@H]32)C(=O)O)NC(=O)[C@H](CCC(N)=O)NC(=O)[C@@H]2CCCN2C(=O)[C@H](CC(=O)O)NC(=O)CNC(=O)[C@@H]2CCCN2C(=O)[C@H](CCCNC(=N)N)NC1=O [aCD3-04-006, WCTRPGDPQC-GGGS-K(Bio)] (H-WCTRPGDPQCGGGSK(Biotin)-OH; disulfide 2-10) | 0.226 | Yes |  |  | 
C[C@H](N)C(=O)N[C@H]1CSSC[C@@H](C(=O)NCC(=O)NCC(=O)NCC(=O)N[C@@H](CO)C(=O)N[C@@H](CCCCNC(=O)CCCC[C@@H]2SC[C@@H]3NC(=O)N[C@@H]32)C(=O)O)NC(=O)[C@H](CCC(N)=O)NC(=O)[C@@H]2CCCN2C(=O)[C@H](CC(=O)O)NC(=O)[C@H](CCC(=O)O)NC(=O)[C@@H]2CCCN2C(=O)[C@H](CCCNC(=N)N)NC(=O)[C@H]([C@@H](C)O)NC1=O [aCD3-04-007, ACTRPEDPQC-GGGS-K(Bio)] (H-ACTRPEDPQCGGGSK(Biotin)-OH; disulfide 2-10) | 0.299 | Yes |  |  | 
C[C@H](N)C(=O)N[C@H]1CSSC[C@@H](C(=O)NCC(=O)NCC(=O)NCC(=O)N[C@@H](CO)C(=O)N[C@@H](CCCCNC(=O)CCCC[C@@H]2SC[C@@H]3NC(=O)N[C@@H]32)C(=O)O)NC(=O)[C@H](C)NC(=O)[C@@H]2CCCN2C(=O)[C@H](CC(=O)O)NC(=O)CNC(=O)[C@@H]2CCCN2C(=O)[C@H](CCCNC(=N)N)NC(=O)[C@H]([C@@H](C)O)NC1=O [aCD3-04-008, ACTRPGDPAC-GGGS-K(Bio)] (H-ACTRPGDPACGGGSK(Biotin)-OH; disulfide 2-10) | 0.164 | Yes |  |  | 
C[C@H](N)C(=O)N[C@H]1CSSC[C@@H](C(=O)NCC(=O)NCC(=O)NCC(=O)N[C@@H](CO)C(=O)N[C@@H](CCCCNC(=O)CCCC[C@@H]2SC[C@@H]3NC(=O)N[C@@H]32)C(=O)O)NC(=O)[C@H](Cc2ccc(O)cc2)NC(=O)[C@@H]2CCCN2C(=O)[C@H](CC(=O)O)NC(=O)CNC(=O)[C@@H]2CCCN2C(=O)[C@H](CCCNC(=N)N)NC(=O)[C@H]([C@@H](C)O)NC1=O [aCD3-04-009, ACTRPGDPYC-GGGS-K(Bio)] (H-ACTRPGDPYCGGGSK(Biotin)-OH; disulfide 2-10) | 0.167 | Yes |  |  | 
C[C@H](N)C(=O)N[C@H]1CSSC[C@@H](C(=O)NCC(=O)NCC(=O)NCC(=O)N[C@@H](CO)C(=O)N[C@@H](CCCCNC(=O)CCCC[C@@H]2SC[C@@H]3NC(=O)N[C@@H]32)C(=O)O)NC(=O)[C@H](CCC(=O)O)NC(=O)[C@@H]2CCCN2C(=O)[C@H](CC(=O)O)NC(=O)[C@H](CC(=O)O)NC(=O)[C@@H]2CCCN2C(=O)[C@H](CCCNC(=N)N)NC(=O)[C@H]([C@@H](C)O)NC1=O [aCD3-04-013, ACTRPDDPEC-GGGS-K(Bio)] (H-ACTRPDDPECGGGSK(Biotin)-OH; disulfide 2-10) | 0.004 | Yes | concentration-dependent binding | specific binding | slightly lower affinity
C[C@H](N)C(=O)N[C@H]1CSSC[C@@H](C(=O)NCC(=O)NCC(=O)NCC(=O)N[C@@H](CO)C(=O)N[C@@H](CCCCNC(=O)CCCC[C@@H]2SC[C@@H]3NC(=O)N[C@@H]32)C(=O)O)NC(=O)[C@H](Cc2c[nH]c3ccccc23)NC(=O)[C@@H]2CCCN2C(=O)[C@H](CC(=O)O)NC(=O)[C@H](CC(=O)O)NC(=O)[C@@H]2CCCN2C(=O)[C@H](CCCNC(=N)N)NC(=O)[C@H]([C@@H](C)O)NC1=O [aCD3-04-014, ACTRPDDPWC-GGGS-K(Bio)] (H-ACTRPDDPWCGGGSK(Biotin)-OH; disulfide 2-10) | 0.111 | Yes |  |  | 
ACTR(NMI)GDPQC-GGGS-K(Bio) (ACTRLGDPQCGGGSK; not fully specified; N-methylisoleucine; GGGS linker; biotinylated lysine; MOD_RES (5)..(5) N-methylisoleucine; MOD_RES (15)..(15) K(Bio)) [aCD3-04-010] |  | No |  |  | 
ACTRPWDPQC-GGGS-K(Bio) (ACTRPWDPQCGGGSK(Biotin); disulfide 2-10 (inferred)) [aCD3-04-012] |  | No |  |  | 
